Like-named read-outs stand apart in the source and are kept apart here.
What was measured:
human 11β-HSD1 = target: T1, human 11β-HSD1 (Homo sapiens, UniProt P28845); assay: Enzyme inhibitory activity, human 11β-HSD1 (lysate of stably expressing HEK293 cells, cortisol by competitive ELISA); type: biochemical; settings: human 11β-HSD1, cell lysate, 37° C. for 1 hour, read-out: h HSD1 in vitro assay (IC50 uM)
T1 construct: The obtained PCR products of about 0.9 kbp, 1.2 kbp, and 0.9 kbp were subcloned into an expression vector pcDNA3.1+/Zeo; expressed in transfected cells
T1 sequence (P28845 whole entry): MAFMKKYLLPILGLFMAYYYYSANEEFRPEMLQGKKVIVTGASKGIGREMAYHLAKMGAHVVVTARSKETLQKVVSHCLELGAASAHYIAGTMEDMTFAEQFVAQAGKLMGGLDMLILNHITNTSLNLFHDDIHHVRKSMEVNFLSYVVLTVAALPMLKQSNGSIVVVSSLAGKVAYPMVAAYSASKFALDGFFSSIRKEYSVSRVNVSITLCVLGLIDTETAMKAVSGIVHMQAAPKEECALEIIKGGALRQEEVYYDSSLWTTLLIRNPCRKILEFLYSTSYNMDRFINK
Method in brief: (§1)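 Sonicated lysates of stably transfected cells (diluted to 0.1–0.4 mg/mL before addition) reacted for 1 h at 37 °C in pH 7.4 Tris/sucrose/EGTA/EDTA/MgCl2 buffer with 100 nmol/L cortisone or cortisol and 400 μmol/L NADPH or NAD+, then were heat-stopped at 95 °C. Inhibition rate = 100 minus residual activity.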

mouse 11β-HSD1 = target: T2, mouse 11β-HSD1 (Mus musculus, UniProt P50172); assay: Enzyme inhibitory activity, mouse 11β-HSD1 (lysate of stably expressing CHO-K1 cells, cortisol by competitive ELISA); type: biochemical; settings: Table 2; mouse 11β-HSD1, cell lysate, 37° C. for 1 hour; read-out: m HSD1 in vitro assay (IC50 uM)
T2 construct: The obtained PCR products of about 0.9 kbp, 1.2 kbp, and 0.9 kbp were subcloned into an expression vector pcDNA3.1+/Zeo; expressed in transfected cells
T2 sequence (P50172 whole entry): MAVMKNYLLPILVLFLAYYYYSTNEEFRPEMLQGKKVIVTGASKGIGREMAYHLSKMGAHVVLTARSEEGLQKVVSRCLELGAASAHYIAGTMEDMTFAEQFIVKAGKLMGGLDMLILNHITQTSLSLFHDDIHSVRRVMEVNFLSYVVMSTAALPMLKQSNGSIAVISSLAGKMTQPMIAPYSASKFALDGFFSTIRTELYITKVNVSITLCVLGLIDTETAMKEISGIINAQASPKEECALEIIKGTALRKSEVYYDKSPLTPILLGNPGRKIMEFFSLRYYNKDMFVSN
Method in brief: as §1

IC50 (human 11β-HSD1; Table 2) [µM] | IC50 (mouse 11β-HSD1) [µM] | IC50 (human 11β-HSD1; Table 1) [µM] | SMILES
0.8 | 0.1 |  | CC1(C)C(=O)N(C2C3CC4CC(C3)CC2C4)N1Cc1ccc(F)c(F)c1 (stereo not shown) [Example 16, 1-(3,4-difluorobenzyl)-4,4-dimethyl-2-(adamantan-2-yl)-1,2-diazetidin-3-one]
 | 0.31 | 0.8 | CC1(C)C(=O)N(C2C3CC4CC(C3)CC2C4)N1Cc1ccccc1-c1ccccc1 (stereo not shown) [Example 49, 1-(biphenyl-2-ylmethyl)-4,4-dimethyl-2-(adamantan-2-yl)-1,2-diazetidin-3-one]
 | 0.25 | 0.011 | CC1(C)C(=O)N([C@H]2C3CC4CC2C[C@](C(N)=O)(C4)C3)N1c1cccc2ccccc12 [Example 275, trans-4-[2-(naphthalen-1-yl)-3,3-dimethyl-4-oxo-1,2-diazetidin-1-yl]adamantane-1-carboxamide]
 | 0.15 | 0.44 | Cc1c(F)cccc1C(=O)N1N(C2C3CC4CC(C3)CC2C4)C(=O)C1(C)C (stereo not shown) [Example 157, 1-[(3-fluoro-2-methylphenyl)carbonyl]-4,4-dimethyl-2-(adamantan-2-yl)-1,2-diazetidin-3-one]
0.44 | 0.16 |  | CC1(C)C(=O)N(C2C3CC4CC(C3)CC2C4)N1c1csc2ccccc12 (stereo not shown) [Example 210, 1-(1-benzothiophen-3-yl)-4,4-dimethyl-2-(adamantan-2-yl)-1,2-diazetidin-3-one]
 | 0.24 | 0.22 | CC1(C)C(=O)N(C2C3CC4CC(C3)CC2C4)N1C(=O)c1ccccc1O (stereo not shown) [Example 138, 1-[(2-hydroxyphenyl)carbonyl]-4,4-dimethyl-2-(adamantan-2-yl)-1,2-diazetidin-3-one]
0.047 | 0.1 |  | Cc1ccccc1CN1N(C2C3CC4CC(C3)CC2C4)C(=O)C1(C)C (stereo not shown) [Example 30, 4,4-dimethyl-1-(2-methylbenzyl)-2-(adamantan-2-yl)-1,2-diazetidin-3-one]
0.13 | 0.39 |  | CC1(C)C(=O)N(C2CC3CCC2C3)N1Cc1cc(Cl)ccc1Cl (stereo not shown) [Example 80, 2-(bicyclo[2.2.1]heptan-2-yl)-1-(2,5-dichlorobenzyl)-4,4-dimethyl-1,2-diazetidin-3-one]
0.056 | 0.75 |  | CC1(C)C(=O)N([C@H]2C3CC4CC2C[C@](O)(C4)C3)N1c1ccc(N)cc1 [Example 235, trans-1-(4-aminophenyl)-2-(5-hydroxyadamantan-2-yl)-4,4-dimethyl-1,2-diazetidin-3-one]
 | 0.15 | 0.13 | Cc1ccccc1C(=O)N1N(C2C3CC4CC(C3)CC2C4)C(=O)C1(C)C (stereo not shown) [Example 116, 4,4-dimethyl-1-[(2-methylphenyl)carbonyl]-2-(adamantan-2-yl)-1,2-diazetidin-3-one]
 | 0.26 | 0.027 | CC1(C)C(=O)N([C@H]2C3CC4CC2C[C@@](O)(C4)C3)N1c1cccc2ccccc12 [Example 247, cis-2-(5-hydroxyadamantan-2-yl)-4,4-dimethyl-1-(naphthalen-1-yl)-1,2-diazetidin-3-one]
0.007 | 0.4 | 0.007 | CC1(C)C(=O)N(C2C3CC4CC2CC(C(N)=O)(C4)C3)N1c1cccc(Cl)c1Cl (stereo not drawn) [Example 276, cis-4-[2-(2,3-dichlorophenyl)-3,3-dimethyl-4-oxo-1,2-diazetidin-1-yl]adamantane-1-carboxamide]
0.054 | 0.052 |  | Cc1ccc(C)c(CN2N(C3C4CC5CC(C4)CC3C5)C(=O)C2(C)C)c1 (stereo not shown) [Example 56, 1-(2,5-dimethylbenzyl)-4,4-dimethyl-2-(adamantan-2-yl)-1,2-diazetidin-3-one]
0.3 | 0.036 |  | COc1cccc(CN2N(C3C4CC5CC(C4)CC3C5)C(=O)C2(C)C)c1 (stereo not shown) [Example 54, 1-(3-methoxybenzyl)-4,4-dimethyl-2-(adamantan-2-yl)-1,2-diazetidin-3-one]
 | 0.18 | 0.003 | CC1(C)C(=O)N([C@H]2C3CC4CC2C[C@](Cl)(C4)C3)N1c1ccc(F)c2ccccc12 [Example 255, trans-2-(5-chloroadamantan-2-yl)-1-(4-fluoronaphthalen-1-yl)-4,4-dimethyl-1,2-diazetidin-3-one]
0.44 | 0.073 |  | CC1(C)C(=O)N(C2C3CC4CC(C3)CC2C4)N1Cc1cccc(Cl)c1 (stereo not shown) [Example 28, 1-(3-chlorobenzyl)-4,4-dimethyl-2-(adamantan-2-yl)-1,2-diazetidin-3-one]
0.072 | 0.074 |  | CC1(C)C(=O)N(C2C3CC4CC(C3)CC2C4)N1Cc1cccc(Cl)c1Cl (stereo not shown) [Example 43, 1-(2,3-dichlorobenzyl)-4,4-dimethyl-2-(adamantan-2-yl)-1,2-diazetidin-3-one]
0.044 | 0.073 |  | CC1(C)C(=O)N(C2C3CC4CC(C3)CC2C4)N1Cc1cc(Cl)ccc1Cl (stereo not shown) [Example 44, 1-(2,5-dichlorobenzyl)-4,4-dimethyl-2-(adamantan-2-yl)-1,2-diazetidin-3-one]
0.71 | 0.23 |  | CC1(C)C(=O)N(C2C3CC4CC(C3)CC2C4)N1Cc1ccc(F)cc1F (stereo not shown) [Example 17, 1-(2,4-difluorobenzyl)-4,4-dimethyl-2-(adamantan-2-yl)-1,2-diazetidin-3-one]
0.96 | 0.3 |  | CC1(C)C(=O)N(C2C3CC4CC(C3)CC2C4)N1Cc1ccc([N+](=O)[O-])cc1 (stereo not shown) [Example 31, 4,4-dimethyl-1-(4-nitrobenzyl)-2-(adamantan-2-yl)-1,2-diazetidin-3-one]
0.55 | 0.47 |  | CC1(C)C(=O)N(C2C3CC4CC(C3)CC2C4)N1CCc1ccccc1 (stereo not shown) [Example 266, 4,4-dimethyl-1-(2-phenylethyl)-2-(adamantan-2-yl)-1,2-diazetidin-3-one]
0.13 | 0.61 |  | CC1(C)C(=O)N(C2CCCCCC2)N1Cc1cccc(Cl)c1Cl [Example 84, 2-cycloheptyl-1-(2,3-dichlorobenzyl)-4,4-dimethyl-1,2-diazetidin-3-one]
0.5 | 0.47 |  | CC1(C)C(=O)N([C@H]2C3CC4CC2C[C@](O)(C4)C3)N1Cc1ccccc1Cl [Example 65, trans-1-(2-chlorobenzyl)-2-(5-hydroxyadamantan-2-yl)-4,4-dimethyl-1,2-diazetidin-3-one]
0.053 | 0.37 |  | CC1(C)C(=O)N(C2CCCCCC2)N1Cc1cc(Cl)ccc1Cl [Example 85, 2-cycloheptyl-1-(2,5-dichlorobenzyl)-4,4-dimethyl-1,2-diazetidin-3-one]
0.2 | 0.58 |  | CC1(C)C(=O)N(C2C3CC4CC(C3)CC2C4)N1Cc1ccccc1[N+](=O)[O-] (stereo not shown) [Example 47, 4,4-dimethyl-1-(2-nitrobenzyl)-2-(adamantan-2-yl)-1,2-diazetidin-3-one]
0.23 | 0.3 |  | CC1(C)C(=O)N(C2C3CC4CC(C3)CC2C4)N1Cc1cccc2c1OCO2 (stereo not shown) [Example 61, 1-(1,3-benzodioxol-4-ylmethyl)-4,4-dimethyl-2-(adamantan-2-yl)-1,2-diazetidin-3-one]

SMILES | IC50 (human 11β-HSD1; Table 2) [µM] | IC50 (mouse 11β-HSD1) [µM] | IC50 (human 11β-HSD1; Table 1) [µM]
CC1(C)C(=O)N(C2CC3CCC2C3)N1c1cccc2ccccc12 (stereo not shown) [Example 225, 2-(bicyclo[2.2.1]heptan-2-yl)-4,4-dimethyl-1-(naphthalen-1-yl)-1,2-diazetidin-3-one] |  | 0.012 | 0.036

From patent publication US8252781B2, “1,2-diazetidin-3-one derivatives and drugs containing same” (Kowa Company, Ltd., priority 2008, dated 2012)
